Reference: ChEMBL document CHEMBL1136493, “Synthesis and anti-HIV properties of new water-soluble bis-functionalized[60]fullerene derivatives” (Bioorg Med Chem Lett, 2003)

Assays:
Details in all cases: Homo sapiens
CCRF-CEM [1] = assay: Effective concentration required to inhibit HIV-induced (HIV-1) cytopathicity by 50% in CEM cell cultures; type: functional, cell-based
CCRF-CEM [2] = assay: Effective concentration required to inhibit HIV-induced (HIV-2) cytopathicity by 50% in CEM cell cultures; type: functional, cell-based
CCRF-CEM [3] = assay: Cytostatic concentration required to inhibit CEM cell proliferation by 50%; type: functional

## NCCOCCOCCN1CC23C4=c5c6c7c8c9c%10c%11c%12c%13c%14c%15c%16c%17c%18c%19c%20c%21c%22c%23c%24c(c2c%22c2c%22c%25c%26c(c5c(c6%10)c5c%11c6c%13c(c%14%18)c%10c%19c(c%212)c%25c%10c6c%265)C%223C1)C4C7C1=C%24C(=C%16C2(CN(CCOCCOCCN)CC182)C%15C9%12)C%23C%17%20 (stereo not given)
CCRF-CEM [1]
  EC50: > 4 µM
CCRF-CEM [2]
  EC50: > 4 µM
CCRF-CEM [3]
  CC50: 7.63 µM

## NCCOCCOCCN1CC23C4=c5c6c7c8c9c%10c%11c%12c%13c9c9c%14c%15c%16c%17c%18c%19c%20c%21c%22c%23c%24c(c-%11c(c2c%24c2c%11c%24c%25c(c5c5c6c(c8%14)c%15c6c%17c(c%25c56)c5c%18c%21c(c%232)c%245)C%113C1)C4C%107)C%12C%22C%201CN(CCOCCOCCN)CC%131C9C%19%16 (stereo not given)
CCRF-CEM [1]
  EC50: > 4 µM
CCRF-CEM [2]
  EC50: > 4 µM
CCRF-CEM [3]
  CC50: 7.2 µM

## COCCOCCOCCOC(=O)C1(C(=O)OCCOCCOCCOC)C23C4=c5c6c7c8c9c%10c%11c%12c%13c9c9c%14c%15c%16c%17c%18c%19c%20c%21c%22c%23c%24c(c-%11c(c2c%24c2c%11c%24c%25c(c5c5c6c(c8%14)c%15c6c%17c(c%25c56)c5c%18c%21c(c%232)c%245)C%1113)C4C%107)C%12C%22C%201CN(CCOCCOCCN)CC%131C9C%19%16 (stereo not given)
CCRF-CEM [1]
  EC50: > 4 µM
CCRF-CEM [2]
  EC50: > 4 µM

## O=C(O)CN(CCOCCOCCN1CC23C4=C5c6c7c8c9c(c%10c%11c%12c%13c%14c%15c%16c%17c%18c%19c%20c%21c%22c%23c(c6c6c%22c%22c%20c(c%15%19)c%13c(c%129)c%22c86)C5C5C6c8c9c(c-%17c%12c8C5C%23C%21C%12%18)C5c8c-9c(c2c-%10c8C%112CN(CCOCCOCCN(CC(=O)O)CC(=O)O)CC%142C%165)C46)C73C1)CC(=O)O (stereo not given)
CCRF-CEM [1]
  EC50: > 4 µM
CCRF-CEM [2]
  EC50: > 4 µM

## NCCOCCOCCN1CC23C4=C5c6c7c8c9c(c%10c%11c%12c%13c%14c%15c%16c%17c%18c%19c%20c%21c%22c%23c(c6c6c%22c%22c%20c(c%15%19)c%13c(c%129)c%22c86)C5C5C6c8c9c(c-%17c%12c8C5C%23C%21C%12%18)C5c8c-9c(c2c-%10c8C%112CN(CCOCCOCCN)CC%142C%165)C46)C73C1 (stereo not given)
CCRF-CEM [1]
  EC50: > 4 µM
CCRF-CEM [2]
  EC50: > 4 µM
CCRF-CEM [3]
  CC50: 9.6 µM

## C[N+]1(CCOCCOCCN)CC23C4=c5c6c7c8c9c%10c%11c%12c%13c%14c%15c%16c%17c%18c%19c%20c%21c%22c(c2c%20c2c%20c%23c%24c(c5c7c5c9c7c%11c(c%12%16)c9c%17c(c%192)c%23c9c7c%245)C%203C1)C4C1C=6C2c3c1c-%22c(c-%14c3C%13C%10C82)C%211C[N+](C)(CCOCCOCCN)CC%15%181 (stereo not given)
CCRF-CEM [1]
  EC50: 2.6 µM
CCRF-CEM [2]
  EC50: > 4 µM
CCRF-CEM [3]
  CC50: 13.2 µM

## NCCOCCOCCN1CC23C4=c5c6c7c8c9c%10c%11c%12c%13c%14c%15c%16c%17c%18c%19c%20c%21c%22c(c2c%20c2c%20c%23c%24c(c5c7c5c9c7c%11c(c%12%16)c9c%17c(c%192)c%23c9c7c%245)C%203C1)C4C1C=6C2c3c1c-%22c(c-%14c3C%13C%10C82)C%211CN(CCOCCOCCN)CC%15%181 (stereo not given)
CCRF-CEM [1]
  EC50: > 4 µM
CCRF-CEM [2]
  EC50: > 4 µM
CCRF-CEM [3]
  CC50: 7.4 µM

## C[N+]1(CCOCCOCCN)CC23C4=C5c6c7c8c9c(c%10c%11c%12c%13c%14c%15c%16c%17c%18c%19c%20c%21c%22c%23c(c6c6c%22c%22c%20c(c%15%19)c%13c(c%129)c%22c86)C5C5C6c8c9c(c-%17c%12c8C5C%23C%21C%12%18)C5c8c-9c(c2c-%10c8C%112C[N+](C)(CCOCCOCCN)CC%142C%165)C46)C73C1 (stereo not given)
CCRF-CEM [1]
  EC50: 1.6 µM
CCRF-CEM [2]
  EC50: > 4 µM
CCRF-CEM [3]
  CC50: 6.59 µM

## C[N+]1(CCOCCOCCN)CC23C4=c5c6c7c8c9c%10c%11c%12c%13c9c9c%14c%15c%16c%17c%18c%19c%20c%21c%22c%23c%24c(c-%11c(c2c%24c2c%11c%24c%25c(c5c5c6c(c8%14)c%15c6c%17c(c%25c56)c5c%18c%21c(c%232)c%245)C%113C1)C4C%107)C%12C%22C%201C[N+](C)(CCOCCOCCN)CC%131C9C%19%16 (stereo not given)
CCRF-CEM [1]
  EC50: 0.4 µM
CCRF-CEM [2]
  EC50: > 4 µM
CCRF-CEM [3]
  CC50: 4.79 µM

## O=C(O)CN(CCOCCOCCN1CC23C4=c5c6c7c8c9c%10c%11c%12c%13c9c9c%14c%15c%16c%17c%18c%19c%20c%21c%22c%23c%24c(c-%11c(c2c%24c2c%11c%24c%25c(c5c5c6c(c8%14)c%15c6c%17c(c%25c56)c5c%18c%21c(c%232)c%245)C%113C1)C4C%107)C%12C%22C%201CN(CCOCCOCCN(CC(=O)O)CC(=O)O)CC%131C9C%19%16)CC(=O)O (stereo not given)
CCRF-CEM [1]
  EC50: 2.01 µM
CCRF-CEM [2]
  EC50: > 4 µM

## COCCOCCOCCOC(=O)C1(C(=O)OCCOCCOCCOC)C23C4=C5c6c7c8c9c(c%10c%11c%12c%13c%14c%15c%16c%17c%18c%19c%20c%21c%22c%23c(c6c6c%22c%22c%20c(c%15%19)c%13c(c%129)c%22c86)C5C5C6c8c9c(c-%17c%12c8C5C%23C%21C%12%18)C5c8c-9c(c2c-%10c8C%112CN(CCOCCOCCN)CC%142C%165)C46)C713 (stereo not given)
CCRF-CEM [1]
  EC50: > 4 µM
CCRF-CEM [2]
  EC50: > 4 µM

## C[N+]1(CCOCCOCCN)CC23C4=c5c6c7c8c9c%10c%11c%12c%13c%14c%15c%16c%17c%18c%19c%20c%21c%22c%23c%24c(c2c%22c2c%22c%25c%26c(c5c(c6%10)c5c%11c6c%13c(c%14%18)c%10c%19c(c%212)c%25c%10c6c%265)C%223C1)C4C7C1=C%24C(=C%16C2(C[N+](C)(CCOCCOCCN)CC182)C%15C9%12)C%23C%17%20 (stereo not given)
CCRF-CEM [1]
  EC50: 0.96 µM
CCRF-CEM [2]
  EC50: > 4 µM
CCRF-CEM [3]
  CC50: 3.02 µM

## C[N+]1(CCOCCOCCN)CC23C4=c5c6c7c8c9c%10c%11c%12c%13c%14c%15c%16c%17c%18c%19c%20c%21c%22c%23c%24c(c2c%22c2c%22c%25c%26c(c5c(c6%10)c5c%11c6c%13c(c%14%18)c%10c%19c(c%212)c%25c%10c6c%265)C%223C1)C4C7c1c-%24c(c-%16c(c1-8)C%15C9%12)C%23C%17%20 (stereo not given)
CCRF-CEM [1]
  EC50: > 4 µM
CCRF-CEM [2]
  EC50: > 4 µM
CCRF-CEM [3]
  CC50: 44.3 µM
